Laboratory results taken from PMC6010129, “Evaluation of sulphonamide derivatives acting as inhibitors of human carbonic anhydrase isoforms I, II and Mycobacterium tuberculosisβ-class enzyme Rv3273” (Journal of Enzyme Inhibition and Medicinal Chemistry, 2018).

How the values were obtained:
[1] = molecular target: T1, hCA I (Homo sapiens, UniProt P00915); test: stopped-flow CO2 hydrase assay; type: biochemical
T1 construct: gene CA1; cytosolic isoform
Source text: stopped-flow CO2 hydrase assay on hCA I

[2] = molecular target: T2, mtCA 3 (Mycobacterium tuberculosis, UniProt P96878); test: biochemical; design: stopped-flow CO2 hydration assay, phenol red absorbance at 557 nm, 15 min pre-incubation, Ki by Cheng-Prusoff
T2 construct: beta-class carbonic anhydrase
Procedure: An Sx.18Mv-R Applied Photophysics (Oxford, UK) stopped-flow instrument has been used to assay the catalytic activity of various CA isozymes for CO2 hydration reaction. Phenol red (at a concentration of 0.2 mM) was used as indicator, working at the absorbance maximum of 557 nm, with 10 mM Hepes (pH 7.5) or 10 mM Tris (pH 8.5) as buffers, and 0.1 M Na2SO4 (for maintaining constant ionic strength, which is not inhibitory against these enzymes), following the CA-catalysed CO2 hydration reaction for a period of 10 s at 25 °C. The CO2 concentrations ranged from 1.7 to 17 mM for the determination of the kinetic parameters and […]. For each inhibitor at least six traces of the initial 5–10% of the reaction have been used for determining the initial rate. The uncatalysed rates were determined in the same manner and subtracted from the total observed rates. Stock solutions of inhibitors (10 mM) were prepared in distilled-deionised […] to 1 nM using the assay buffer. Inhibitor and enzyme solutions were pre-incubated together for 15 min (standard assay at room temperature) prior to assay, in order to allow for the formation of the enzyme–inhibitor complex. The inhibition constant (KI), was obtained by considering the classical Michaelis–Menten equation and the Cheng-Prusoff algorithm by using non-linear least squares fitting as reported earlier. The compounds 5 and 6 reported here were investigated as inhibitors of three CAs involved in crucial physiologic processes and known to act as drug targets, i.e. the human (h) isoforms hCA I and II (belonging to the α-CA class) and the bacterial enzyme mtCA3 from Mycobacterium tuberculosis (a β-class CA) (Table 3). Acetazolamide (AAZ), a clinically used sulphonamide has been employed as standard inhibitor in the assay.

[3] = molecular target: T3, hCA II (Homo sapiens, UniProt P00918); test: stopped-flow CO2 hydrase assay; type: biochemical
T3 construct: gene CA2; cytosolic isoform
Source text: stopped-flow CO2 hydrase assay on hCA II

T2 sequence (P96878 entry or part of it): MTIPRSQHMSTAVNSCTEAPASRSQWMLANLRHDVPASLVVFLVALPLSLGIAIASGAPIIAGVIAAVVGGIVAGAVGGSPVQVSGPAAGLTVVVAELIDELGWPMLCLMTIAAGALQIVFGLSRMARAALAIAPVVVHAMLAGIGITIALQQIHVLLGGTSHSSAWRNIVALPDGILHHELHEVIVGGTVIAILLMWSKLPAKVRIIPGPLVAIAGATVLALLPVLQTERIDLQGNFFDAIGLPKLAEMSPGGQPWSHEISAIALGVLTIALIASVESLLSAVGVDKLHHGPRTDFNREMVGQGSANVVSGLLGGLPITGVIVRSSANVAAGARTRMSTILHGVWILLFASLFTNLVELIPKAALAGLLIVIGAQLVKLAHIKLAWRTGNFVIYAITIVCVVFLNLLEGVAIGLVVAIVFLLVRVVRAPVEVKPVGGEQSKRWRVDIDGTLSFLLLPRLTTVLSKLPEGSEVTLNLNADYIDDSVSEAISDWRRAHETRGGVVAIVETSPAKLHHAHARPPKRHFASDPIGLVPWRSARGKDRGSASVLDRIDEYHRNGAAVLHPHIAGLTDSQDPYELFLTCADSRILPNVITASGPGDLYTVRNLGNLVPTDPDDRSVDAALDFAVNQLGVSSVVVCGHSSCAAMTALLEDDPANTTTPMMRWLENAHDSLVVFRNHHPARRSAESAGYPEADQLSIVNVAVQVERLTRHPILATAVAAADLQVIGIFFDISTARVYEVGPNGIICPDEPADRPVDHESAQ
T1 sequence (P00915 2-261): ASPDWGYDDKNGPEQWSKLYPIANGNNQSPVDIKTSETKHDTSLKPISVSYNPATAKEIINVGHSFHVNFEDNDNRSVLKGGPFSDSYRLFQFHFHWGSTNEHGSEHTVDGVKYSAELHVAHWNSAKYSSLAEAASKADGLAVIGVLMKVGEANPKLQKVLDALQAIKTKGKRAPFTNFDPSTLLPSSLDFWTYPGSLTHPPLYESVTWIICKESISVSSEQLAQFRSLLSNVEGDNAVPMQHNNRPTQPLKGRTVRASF

SMILES | Ki [1] | Ki [2] | Ki [3]
NS(=O)(=O)c1ccc(NCC(=O)N/N=C/c2ccccn2)cc1 [6d, 4-((2-Oxo-2-(2-(pyridin-2-ylmethylene) hydrazinyl)ethyl)amino) benzenesulphonamide] | 316 nM | > 10000 nM | 418 nM
CC1=NN(C(=O)CNc2ccc(S(N)(=O)=O)cc2)C(c2ccccc2O)C1 (stereo not drawn) [5r, 4-((2-(5-(2-Hydroxyphenyl)-3-methyl-4,5-dihydro-1H-pyrazol-1-yl)-2-oxoethyl)amino)benzenesulphonamide] | 721 nM | 1590 nM | 83.1 nM
